Results reported in patent US7445765B2, “Radiopharmaceutical for diagnostic imaging containing a technetium-99m nitride heterocomplex” (Nihon Medi-Physics Co., Ltd., priority 2000, dated 2008).

Experiment: Biodistribution of the 99mTc(N) heterocomplexes in rats (organ uptake, heart accumulation, heart/lung and heart/liver ratios)
Format: in vivo, female Sprague-Dawley rats
Conditions: for Heart accumulation: rats
Procedure: The biodistribution was measured by using female Sprague-Dawley rats (SD rats) weighing 200 g to 250 g. Each of the ^99mTc(N) heterocomplexes purified in the manner described above was diluted with phosphate buffer (0.1 M, pH=7.4) to obtain a final solution having an ethanol content of 10%. After the SD rats were anesthetized with an intramuscular injection of a mixture of ketamine (80 mg/kg) and xilazine (19 mg/kg), the jugular vein of each rat was surgically exposed and 100 μL (300 to 370 kBq) of the solution containing each ^99mTc(N) heterocomplexes prepared in the manner described above was injected in the jugular vein. The rats (n=3) were sacrificed by cervical dislocation at different times post injection. The blood was withdrawn from the heart through a syringe and counted. It was assumed that the whole blood content was 6.5% of the total body weight. The organs were excised from the rats, washed with physiological saline, weighed, and counted in a NaI well counter.
For comparison, Tables 19 and 20 show the results, obtained in the same manner as above, of measuring the biodistribution of (^99mTc) (MIBI) and (^99mTc) (Tf) which have been used as pharmaceuticals for diagnostic imaging for blood flow in myocardium.
Tables 21 to 23 show data showing the variations with time of heart accumulation, heart/lung ratios and heart/liver ratios for the ^99mTc(N) heterocomplexes of the present invention.

CCOCCN1CC[P](CCCOC)(CCCOC)[99Tc+]2(#[N])([S]C(N(CCOCC)C(C)C)=[S]2)[P](CCCOC)(CCCOC)CC1 [[^99mTc(N) (PNP5) (ISOET)]^+]
Biodistribution in rats: Adrenal glands (2 min post injection): 2.24 % dose/g | Biodistribution in rats: Blood (2 min post injection): 0.14 % dose/g | Biodistribution in rats: Brain (2 min post injection): 0.02 % dose/g | Biodistribution in rats: Heart (2 min post injection): 2.33 % dose/g | Biodistribution in rats: Intestine (2 min post injection): 3.68 % dose/g | Biodistribution in rats: Kidneys (2 min post injection): 7.19 % dose/g | Biodistribution in rats: Liver (2 min post injection): 2.79 % dose/g | Biodistribution in rats: Lungs (2 min post injection): 0.74 % dose/g | Biodistribution in rats: Muscle (2 min post injection): 0.16 % dose/g | Biodistribution in rats: Spleen (2 min post injection): 1.11 % dose/g | Biodistribution in rats: Submax. glands (2 min post injection): 0.95 % dose/g | Biodistribution in rats: Adrenal glands (10 min (Table 16)): 2.22 % dose/g | Biodistribution in rats: Blood (10 min (Table 16)): 0.93 % dose/g | Biodistribution in rats: Brain (10 min (Table 16)): 0.10 % dose/g | Biodistribution in rats: Heart (10 min (Table 16)): 3.35 % dose/g | Biodistribution in rats: Intestine (10 min (Table 16)): 3.70 % dose/g | Biodistribution in rats: Kidneys (10 min (Table 16)): 5.40 % dose/g | Biodistribution in rats: Liver (10 min (Table 16)): 0.95 % dose/g | Biodistribution in rats: Lungs (10 min (Table 16)): 2.44 % dose/g | Biodistribution in rats: Muscle (10 min (Table 16)): 0.13 % dose/g | Biodistribution in rats: Spleen (10 min (Table 16)): 1.16 % dose/g | Biodistribution in rats: Submax. glands (10 min (Table 16)): 0.92 % dose/g | Biodistribution in rats: Adrenal glands (10 min post injection): 2.70 % dose/g | Biodistribution in rats: Blood (10 min post injection): 0.04 % dose/g | Biodistribution in rats: Brain (10 min post injection): 0.02 % dose/g | Biodistribution in rats: Heart (10 min post injection): 2.91 % dose/g | Biodistribution in rats: Intestine (10 min post injection): 7.12 % dose/g | Biodistribution in rats: Kidneys (10 min post injection): 5.98 % dose/g | Biodistribution in rats: Liver (10 min post injection): 1.54 % dose/g | Biodistribution in rats: Lungs (10 min post injection): 0.73 % dose/g | Biodistribution in rats: Muscle (10 min post injection): 0.22 % dose/g | Biodistribution in rats: Spleen (10 min post injection): 1.28 % dose/g | Biodistribution in rats: Submax. glands (10 min post injection): 1.40 % dose/g | Biodistribution in rats: Adrenal glands (20 min post injection): 2.70 % dose/g | Biodistribution in rats: Blood (20 min post injection): 0.02 % dose/g | Biodistribution in rats: Brain (20 min post injection): 0.01 % dose/g | Biodistribution in rats: Heart (20 min post injection): 2.86 % dose/g | Biodistribution in rats: Intestine (20 min post injection): 7.44 % dose/g | Biodistribution in rats: Kidneys (20 min post injection): 5.31 % dose/g | Biodistribution in rats: Liver (20 min post injection): 1.09 % dose/g | Biodistribution in rats: Lungs (20 min post injection): 0.50 % dose/g | Biodistribution in rats: Muscle (20 min post injection): 0.20 % dose/g | Biodistribution in rats: Spleen (20 min post injection): 1.20 % dose/g | Biodistribution in rats: Submax. glands (20 min post injection): 1.85 % dose/g | Biodistribution in rats: Adrenal glands (30 min post injection): 2.72 % dose/g | Biodistribution in rats: Blood (30 min post injection): 0.02 % dose/g | Biodistribution in rats: Brain (30 min post injection): 0.01 % dose/g | Biodistribution in rats: Heart (30 min post injection): 2.47 % dose/g | Biodistribution in rats: Intestine (30 min post injection): 8.36 % dose/g | Biodistribution in rats: Kidneys (30 min post injection): 5.28 % dose/g | Biodistribution in rats: Liver (30 min post injection): 1.06 % dose/g | Biodistribution in rats: Lungs (30 min post injection): 0.45 % dose/g | Biodistribution in rats: Muscle (30 min post injection): 0.13 % dose/g | Biodistribution in rats: Spleen (30 min post injection): 0.35 % dose/g | Biodistribution in rats: Submax. glands (30 min post injection): 1.51 % dose/g | Biodistribution in rats: Adrenal glands (60 min post injection): 2.23 % dose/g | Biodistribution in rats: Blood (60 min post injection): 0.02 % dose/g | Biodistribution in rats: Brain (60 min post injection): 0.00 % dose/g | Biodistribution in rats: Heart (60 min post injection): 2.74 % dose/g | Biodistribution in rats: Intestine (60 min post injection): 8.29 % dose/g | Biodistribution in rats: Kidneys (60 min post injection): 5.12 % dose/g | Biodistribution in rats: Liver (60 min post injection): 0.43 % dose/g | Biodistribution in rats: Lungs (60 min post injection): 0.35 % dose/g | Biodistribution in rats: Muscle (60 min post injection): 0.15 % dose/g | Biodistribution in rats: Spleen (60 min post injection): 0.73 % dose/g | Biodistribution in rats: Submax. glands (60 min post injection): 1.79 % dose/g | Biodistribution in rats: Adrenal glands (120 min post injection): 2.98 % dose/g | Biodistribution in rats: Blood (120 min post injection): 0.01 % dose/g | Biodistribution in rats: Brain (120 min post injection): 0.01 % dose/g | Biodistribution in rats: Heart (120 min post injection): 2.44 % dose/g | Biodistribution in rats: Intestine (120 min post injection): 8.00 % dose/g | Biodistribution in rats: Kidneys (120 min post injection): 4.50 % dose/g | Biodistribution in rats: Liver (120 min post injection): 0.23 % dose/g | Biodistribution in rats: Lungs (120 min post injection): 0.22 % dose/g | Biodistribution in rats: Muscle (120 min post injection): 0.19 % dose/g | Biodistribution in rats: Spleen (120 min post injection): 0.41 % dose/g | Biodistribution in rats: Submax. glands (120 min post injection): 1.38 % dose/g

CCOCCN1CC[P](CCCOC)(CCCOC)[99Tc+]2(#[N])([S]C(N(CCOCC)C(C)C)=[S]2)[P](CCCOC)(CCCOC)CC1 [[^99m−Tc(N) (PNP5) (ISOET)^+]]
Heart accumulation (0 min): 3.35 ± 0.51 % ID/g | Heart accumulation (2 min): 2.33 ± 0.17 % ID/g | Heart accumulation (10 min): 2.91 ± 0.36 % ID/g | Heart accumulation (20 min): 2.86 ± 0.07 % ID/g | Heart accumulation (30 min): 2.47 ± 0.49 % ID/g | Heart accumulation (60 min): 2.74 ± 0.19 % ID/g | Heart accumulation (120 min): 2.44 ± 0.05 % ID/g

CCOCCC[P]1(CCCOCC)CCN(CCOCC)CC[P](CCCOCC)(CCCOCC)[99Tc+]12(#[N])[S]C(N(CCOCC)CCOCC)=[S]2 [[^99m−Tc(N) (PNP6) (DBODC)^+]]
Heart accumulation (0 min): 2.26 ± 0.82 % ID/g | Heart accumulation (2 min): 1.24 ± 0.14 % ID/g | Heart accumulation (10 min): 1.39 ± 0.30 % ID/g | Heart accumulation (20 min): 1.18 ± 0.18 % ID/g | Heart accumulation (30 min): 1.05 ± 0.19 % ID/g | Heart accumulation (60 min): 1.10 ± 0.11 % ID/g | Heart accumulation (120 min): 1.29 ± 0.16 % ID/g
